SMILES strings stand for the structures. Read-outs that look alike come from different tables or passages of the source.

In assay [1] the test system is LAPC4 prostate cancer cells, which express the AKT1 E17K allele. The experiment in a line: Antiproliferative effects in LAPC4 cells (CellTiter Glo, 72 h). Type of assay: cell-based. Conditions: read-out: LAPC4 proliferation IC50: GeoMean IC50. The procedure:
Antiproliferative effects in LAPC4 cells. LAPC4 prostate cancer cells (Klein, K. A. et al. Nat Med 1997, 3, 402-408), which express the AKT1 E17K allele, were grown in IMDM media (Hyclone) supplemented with 12% FBS+1% P/S. To assess compound effects on growth, 1,000 cells/well were seeded in 384 well assay plates, incubated with compound dilutions dissolved in DMSO. After 72 h, intracellular ATP content was assessed with CellTiter Glo reagent (Promega) according to the manufacturer's instructions. IC50 values were calculated by fitting luminescence values to a log(inhibitor) vs. response Hill equation.
(In general: Cellular ATP, detected with luciferase, serves as a proxy for viable cell number.)

The target of assay [2] is T1, AKT1 E17K (Homo sapiens, UniProt P31749, E17K).
T1 construct: expressed in transfected cells; host or cells: HEK293
T1 sequence (P31749 whole entry E17K): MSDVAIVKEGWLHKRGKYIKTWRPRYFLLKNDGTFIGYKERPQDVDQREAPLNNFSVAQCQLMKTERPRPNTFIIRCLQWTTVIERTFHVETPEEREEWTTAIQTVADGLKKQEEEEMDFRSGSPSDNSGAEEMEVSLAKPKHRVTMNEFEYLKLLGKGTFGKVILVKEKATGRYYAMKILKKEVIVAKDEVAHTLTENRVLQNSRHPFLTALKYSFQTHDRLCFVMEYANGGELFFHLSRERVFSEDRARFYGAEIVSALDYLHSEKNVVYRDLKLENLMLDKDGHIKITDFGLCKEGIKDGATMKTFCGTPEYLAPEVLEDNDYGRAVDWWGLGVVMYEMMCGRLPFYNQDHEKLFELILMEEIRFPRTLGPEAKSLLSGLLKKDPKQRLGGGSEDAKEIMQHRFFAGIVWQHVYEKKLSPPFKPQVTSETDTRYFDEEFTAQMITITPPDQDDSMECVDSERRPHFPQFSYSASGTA
In words: Live cell target engagement by NanoBRET competitive probe displacement, AKT1 E17K. Type of assay: binding. Conditions: transfected HEK293 cells, 2 h at 37° C., read-out: AKT1 E17K IC50: GeoMean IC50. The method, then: (§1) Determining live cell AKT1 E17K, AKT1 WT, and AKT2 target engagement by NanoBRET competitive probe displacement. Live cell target engagement assays were performed as described (Vasta, J. D. et al. Cell Chem Biol 2018, 25(11), 206-214). Briefly, HEK293 cells were transfected with plasmids encoding kinase-NanoLuciferase fusion proteins overnight. Cells were then treated with serial dilutions of compound and an ˜EC50 concentration of fluorescently-tagged ATP-competitive tracer (Promega). After incubation for 2 h at 37° C., luciferase substrate and extracellular luciferase inhibitor were added to all wells, and luminescent intensity at 460 nm and 600 nm were measured on a multimode plate-reader. The ratio of E600/E460 was calculated to give the tracer engagement signal (BRET). IC50 values were calculated by fitting BRET values to a log(inhibitor) vs. response Hill equation.
A general note: BRET reads energy transfer from a luciferase to a nearby fluorophore.

Assay [3] addresses T2, AKT2 (Homo sapiens, UniProt P31751).
T2 construct: expressed in transfected cells; host or cells: HEK293
The experiment in a line: Live cell target engagement by NanoBRET competitive probe displacement, AKT2. Conditions: transfected HEK293 cells, 2 h at 37° C., read-out: AKT2 IC50: GeoMean IC50. Type of assay: binding. The procedure:
as §1

For assay [4], the target named is T3, AKT1 WT (Homo sapiens, UniProt P31749).
T3 construct: expressed in transfected cells; host or cells: HEK293
T3 sequence (P31749 whole entry): as the sequence (P31749 whole entry E17K) above, with K17E counted along it
The experiment in a line: Live cell target engagement by NanoBRET competitive probe displacement, AKT1 WT. Type of assay: binding. Conditions: transfected HEK293 cells, 2 h at 37° C., read-out: AKT1 WT IC50: GeoMean IC50. The procedure: as §1

T2 sequence (P31751 whole entry): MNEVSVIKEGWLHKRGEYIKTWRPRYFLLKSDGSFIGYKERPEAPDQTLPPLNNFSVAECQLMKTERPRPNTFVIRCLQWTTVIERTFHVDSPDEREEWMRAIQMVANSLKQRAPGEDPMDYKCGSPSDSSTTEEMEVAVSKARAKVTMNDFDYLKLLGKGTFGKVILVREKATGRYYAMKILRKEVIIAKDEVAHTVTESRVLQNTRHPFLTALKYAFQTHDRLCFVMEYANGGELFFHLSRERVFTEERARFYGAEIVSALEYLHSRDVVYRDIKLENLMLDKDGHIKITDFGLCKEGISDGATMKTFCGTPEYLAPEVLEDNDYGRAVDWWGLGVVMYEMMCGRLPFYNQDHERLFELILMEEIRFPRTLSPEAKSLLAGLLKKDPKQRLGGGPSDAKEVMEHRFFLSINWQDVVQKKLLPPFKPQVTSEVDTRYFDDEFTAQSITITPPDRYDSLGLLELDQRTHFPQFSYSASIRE

On to `Nc1ncccc1-c1nc2ccc(-n3cccn3)nc2n1-c1ccc2c(c1)C(O)C[C@@H]2NC(=O)c1ccc(O)c(C=O)c1` (single isomer, unassigned) [Example 98], for which the IC50 in assay [1] (Homo sapiens, LAPC4, 72 h) lay within 100 to 2000 nM; in assay [2], 10 to 100 nM; in assay [3], 100 to 2000 nM; in assay [4], 10 to 100 nM.

Regarding `Nc1ncccc1-c1nc2ccc(-n3cccn3)nc2n1-c1ccc2c(c1)[C@@H](O)C[C@@H]2NC(=O)c1ccc(O)c(C=O)c1` (single isomer, unassigned) [Example 99], the IC50 lay within 100 to 2000 nM in assay [1] (Homo sapiens, LAPC4, 72 h); 100 to 2000 nM in assay [2]; 100 to 2000 nM in assay [3]; 100 to 2000 nM in assay [4].

For `Nc1ncccc1-c1nc2ccc(-n3cccn3)nc2n1-c1ccc2c(c1)CC(F)[C@@H]2NC(=O)c1ccc(O)c(C=O)c1` (single isomer, unassigned) [Example 256, N-[(1R,2R*)-5-[2-(2-aminopyridin-3-yl)-5-(pyrazol-1-yl)imidazo[4,5-b]pyridin-3-yl]-2-fluoro-2,3-dihydro-1H-inden-1-yl]-3-formyl-4-hydroxybenzamide], the IC50 in assay [1] fell in the range of 10 to 100 nM; in assay [2], 10 to 100 nM; in assay [3], 100 to 2000 nM; in assay [4], 10 to 100 nM.

Turning to `Nc1ncccc1-c1nc2ccc(-n3cccn3)nc2n1-c1ccc2c(c1)CC(F)[C@@H]2NC(=O)c1ccc(O)c(C=O)c1` (single isomer, unassigned) [Example 257, N-[(1R,2S*)-5-[2-(2-aminopyridin-3-yl)-5-(pyrazol-1-yl)imidazo[4,5-b]pyridin-3-yl]-2-fluoro-2,3-dihydro-1H-inden-1-yl]-3-formyl-4-hydroxybenzamide], the IC50 lay within 100 to 2000 nM in assay [1], 10 to 100 nM in assay [2], 100 to 2000 nM in assay [3] and 10 to 100 nM in assay [4].

As to `Nc1ncccc1-c1nc2ccc(-n3cccn3)nc2n1-c1ccc2c(c1)CC(F)[C@@H]2NC(=O)c1cc(C=O)c(O)cc1F` (single isomer, unassigned) [Example 258, N-((1R,2R*)-5-(2-(2-aminopyridin-3-yl)-5-(1H-pyrazol-1-yl)-3H-imidazo[4,5-b]pyridin-3-yl)-2-fluoro-2,3-dihydro-1H-inden-1-yl)-2-fluoro-5-formyl-4-hydroxybenzamide], the IC50 in assay [1] (Homo sapiens, LAPC4, 72 h) is 10 to 100 nM; in assay [2], under 10 nM; in assay [3] it was 10 to 100 nM; in assay [4] it was 10 to 100 nM.

In the case of `Nc1ncccc1-c1nc2ccc(-c3ccccc3)nc2n1-c1ccc2c(c1)CCC2NCCc1ccc(C=O)c(O)c1` (centres unmarked) [Example 1, 4-(2-((5-(2-(2-aminopyridin-3-yl)-5-phenyl-3H-imidazo[4,5-b]pyridin-3-yl)-2,3-dihydro-1H-inden-1-yl)amino)ethyl)-2-hydroxybenzaldehyde], the results for the IC50 in assay [2], in assay [3] and in assay [4] were 10 to 100 nM, 100 to 2000 nM and 100 to 2000 nM, respectively.

As to `Nc1ncccc1-c1nc2ccc(-c3ccccc3)nc2n1-c1ccc2c(c1)CCC2NCCc1ccc(O)c(C=O)c1` (centres unmarked) [Example 2, 5-(2-((5-(2-(2-aminopyridin-3-yl)-5-phenyl-3H-imidazo[4,5-b]pyridin-3-yl)-2,3-dihydro-1H-inden-1-yl)amino)ethyl)-2-hydroxybenzaldehyde], the values for the IC50 in assay [2], in assay [3] and in assay [4] were 100 to 2000 nM, at least 2000 nM and at least 2000 nM, respectively.

Turning to `Nc1ncccc1-c1nc2ccc(-c3ccccc3)nc2n1-c1ccc2c(c1)CC[C@H]2NCCc1ccc(C=O)c(O)c1` [Example 3, 4-(2-{[(1R)-5-[2-(2-aminopyridin-3-yl)-5-phenylimidazo[4,5-b]pyridin-3-yl]-2,3-dihydro-1H-inden-1-yl]amino}ethyl)-2-hydroxybenzaldehyde], the IC50 in assay [2] was 10 to 100 nM; in assay [3], at least 2000 nM; in assay [4], 100 to 2000 nM.

For `Nc1ncccc1-c1nc2ccc(-c3ccccc3)nc2n1-c1ccc2c(c1)CC[C@@H]2NCCc1ccc(C=O)c(O)c1` [Example 4, 4-(2-{[(1S)-5-[2-(2-aminopyridin-3-yl)-5-phenylimidazo[4,5-b]pyridin-3-yl]-2,3-dihydro-1H-inden-1-yl]amino}ethyl)-2-hydroxybenzaldehyde], the values for the IC50 in assay [2], in assay [3] and in assay [4] were 10 to 100 nM, 100 to 2000 nM and 100 to 2000 nM, respectively.

Regarding `Nc1ncccc1-c1nc2ccc(-c3ccccc3)nc2n1-c1ccc2c(c1)CCC2NC(=O)Cc1ccc(C=O)c(O)c1` (centres unmarked) [Example 6, N-(5-(2-(2-aminopyridin-3-yl)-5-phenyl-3H-imidazo[4,5-b]pyridin-3-yl)-2,3-dihydro-1H-inden-1-yl)-2-(4-formyl-3-hydroxyphenyl)acetamide], the IC50 in assay [2] fell in the range of 10 to 100 nM; in assay [3], 100 to 2000 nM; in assay [4] it was 10 to 100 nM.

`Nc1ncccc1-c1nc2ccc(-c3ccccc3)nc2n1-c1ccc2c(c1)CC[C@H]2NC(=O)c1ccc(O)c(C=O)c1` [Example 7, N-[(1R)-5-[2-(2-aminopyridin-3-yl)-5-phenylimidazo[4,5-b]pyridin-3-yl]-2,3-dihydro-1H-inden-1-yl]-3-formyl-4-hydroxybenzamide]: the IC50 in assay [2] was 100 to 2000 nM; in assay [3], at least 2000 nM; in assay [4], at least 2000 nM.

Consider `Nc1ncccc1-c1nc2ccc(-c3ccccc3)nc2n1-c1ccc2c(c1)CC[C@@H]2NC(=O)Cc1ccc(C=O)c(O)c1Cl` [Example 9, N-[(1S)-5-[2-(2-aminopyridin-3-yl)-5-phenylimidazo[4,5-b]pyridin-3-yl]-2,3-dihydro-1H-inden-1-yl]-2-(2-chloro-4-formyl-3-hydroxyphenyl)acetamide], for which the IC50 in assay [2] was in the range of 10 to 100 nM; in assay [3], 100 to 2000 nM; in assay [4] it was 10 to 100 nM.

Regarding `Nc1ncccc1-c1nc2ccc(-n3cccn3)nc2n1-c1ccc2c(c1)CC[C@@H]2NC(=O)c1cc(C=O)c(F)cc1F` [Example 188, (S)—N-(5-(2-(2-aminopyridin-3-yl)-5-(1H-pyrazol-1-yl)-3H-imidazo[4,5-b]pyridin-3-yl)-2,3-dihydro-1H-inden-1-yl)-2,4-difluoro-5-formylbenzamide], the IC50 in assay [2] lay within 10 to 100 nM; in assay [3], 100 to 2000 nM; in assay [4], 10 to 100 nM.

Regarding `Nc1ncccc1-c1nc2ccc(-n3cccn3)nc2n1-c1ccc2c(c1)CC[C@@H]2NC(=O)c1ccc(F)c(C=O)c1` [Example 191, (S)—N-(5-(2-(2-aminopyridin-3-yl)-5-(1H-pyrazol-1-yl)-3H-imidazo[4,5-b]pyridin-3-yl)-2,3-dihydro-1H-inden-1-yl)-4-fluoro-3-formylbenzamide], the IC50 in assay [2], in assay [3] and in assay [4] was 10 to 100 nM each time.

For `Nc1ncccc1-c1nc2ccc(-n3cccn3)nc2n1-c1ccc2c(c1)CC[C@@H]2n1cnc2c(F)c(O)c(C=O)cc2c1=O` [Example 243, 3-[(1S)-5-[2-(2-aminopyridin-3-yl)-5-(pyrazol-1-yl)imidazo[4,5-b]pyridin-3-yl]-2,3-dihydro-1H-inden-1-yl]-8-fluoro-7-hydroxy-4-oxoquinazoline-6-carbaldehyde], the IC50 in assay [1] (Homo sapiens, LAPC4, 72 h) is 100 to 2000 nM.

With `CS(=O)(=O)Nc1cc2ncn([C@H]3CCc4cc(-n5c(-c6cccnc6N)nc6ccc(-n7cccn7)nc65)ccc43)c(=O)c2cc1C=O` [Example 244, N-{3-[(1S)-5-[2-(2-aminopyridin-3-yl)-5-(pyrazol-1-yl)imidazo[4,5-b]pyridin-3-yl]-2,3-dihydro-1H-inden-1-yl]-6-formyl-4-oxoquinazolin-7-yl}methanesulfonamide], the IC50 in assay [1] (Homo sapiens, LAPC4, 72 h) fell in the range of 100 to 2000 nM.

On to `Cc1nc2cc(O)c(C=O)cc2c(=O)n1[C@H]1CCc2cc(-n3c(-c4cccnc4N)nc4ccc(-n5cccn5)nc43)ccc21` [Example 249, 3-[(1S)-5-[2-(2-aminopyridin-3-yl)-5-(pyrazol-1-yl)imidazo[4,5-b]pyridin-3-yl]-2,3-dihydro-1H-inden-1-yl]-7-hydroxy-2-methyl-4-oxoquinazoline-6-carbaldehyde], for which the IC50 in assay [1] (Homo sapiens, LAPC4, 72 h) was at least 2000 nM.

As for `Nc1ncccc1-c1nc2ccc(-n3cccn3)nc2n1-c1ccc2c(c1)CC(O)C2NC(=O)c1ccc(O)c(C=O)c1` (centres unmarked) [Example 251, N-(5-(2-(2-aminopyridin-3-yl)-5-(1H-pyrazol-1-yl)-3H-imidazo[4,5-b]pyridin-3-yl)-2-hydroxy-2,3-dihydro-1H-inden-1-yl)-3-formyl-4-hydroxybenzamide], the results for the IC50 in assay [2], in assay [3] and in assay [4] were 10 to 100 nM, 100 to 2000 nM and 100 to 2000 nM, respectively.

Values taken from patent US20260053834A1, “COVALENT MODIFIERS OF AKT1 AND USES THEREOF” (Terremoto Biosciences, Inc., priority 2023, published 2026).
